In ChEMBL document CHEMBL3227984, “5-Substituted uracil arabinonucleosides as potential antiviral agents” (J Med Chem, 1979):

Tested on: Vaccinia virus
Test: Antiviral activity against Vaccinia virus infected in primary rabbit kidney cells assessed as inhibition of virus-induced cytopathogenicity
Format: functional, Orthopoxvirus vaccinia

Structure (SMILES) | ID50
Cc1cn([C@@H]2O[C@H](CO)[C@@H](O)[C@@H]2O)c(=O)[nH]c1=O | 3.9 ×10⁻⁶ M
O=c1[nH]c(=O)n([C@@H]2O[C@H](CO)[C@@H](O)[C@@H]2O)cc1[N+](=O)[O-] | >6.9 ×10⁻⁴ M
N#Cc1cn([C@@H]2O[C@H](CO)[C@@H](O)[C@@H]2O)c(=O)[nH]c1=O | >3.7 ×10⁻⁴ M
O=c1[nH]c(=O)n([C@@H]2O[C@H](CO)[C@@H](O)[C@@H]2O)cc1O | >7.7 ×10⁻⁴ M
O=c1ccn([C@@H]2O[C@H](CO)[C@@H](O)[C@@H]2O)c(=O)[nH]1 [ARAURIDINE] | 8.2 ×10⁻⁴ M
